In PubChem BioAssay AID1259407 (Chemical Carcinogenesis Research Information System (CCRIS), 2018):
Active and inactive are the calls of the source. How the calls were made is not given here.

System: CCRIS mutagenicity, Ames/micronucleus/aberration tests
Assay: CCRIS mutagenicity studies
[1] = Test System: AMES SALMONELLA TYPHIMURIUM, Strain/Indicator: TA98, Metabolic Activation: NONE, Method: PREINCUBATION
[2] = Test System: AMES SALMONELLA TYPHIMURIUM, Strain/Indicator: TA100, Metabolic Activation: NONE, Method: PREINCUBATION
[3] = Test System: AMES SALMONELLA TYPHIMURIUM, Strain/Indicator: TA98, Metabolic Activation: NONE, Method: STANDARD PLATE
[4] = Test System: AMES SALMONELLA TYPHIMURIUM, Strain/Indicator: TA100, Metabolic Activation: NONE, Method: STANDARD PLATE

With `O=C(O)C(Br)(Br)Br` the mutagenic call (Test System: AMES SALMONELLA TYPHIMURIUM, Strain/Indicator: RSJ100, Metabolic Activation: NONE, Method: PREINCUBATION) was “inactive; negative”, the mutagenic call (Test System: AMES SALMONELLA TYPHIMURIUM, Strain/Indicator: RSJ100, Metabolic Activation: RAT LIVER S-9, Method: PREINCUBATION) was “inactive; negative” and the mutagenic call [1] was “inactive; negative”. The mutagenic call (Test System: AMES SALMONELLA TYPHIMURIUM, Strain/Indicator: TA98, Metabolic Activation: RAT LIVER S-9, Method: PREINCUBATION) was “inactive; negative”, the mutagenic call (Test System: AMES SALMONELLA TYPHIMURIUM, Strain/Indicator: TA100, Metabolic Activation: NONE, Method: FLUCTUATION TEST) was “active; positive” and the mutagenic call [2] was “inactive; negative”. For the same compound, the mutagenic call (Test System: AMES SALMONELLA TYPHIMURIUM, Strain/Indicator: TA100, Metabolic Activation: RAT LIVER S-9, Method: PREINCUBATION) was “inactive; negative” and the mutagenic call (Test System: AMES SALMONELLA TYPHIMURIUM, Strain/Indicator: TA100, Metabolic Activation: RAT, LIVER, S-9, AROCLOR 1254, Method: FLUCTUATION TEST) was “active; positive”.

With `O=C(Nc1cccc([N+](=O)[O-])c1)c1csc([N+](=O)[O-])c1` the mutagenic call [3] was “active; positive” and the mutagenic call [4] was “active; positive”.

In the case of `CC(C)=CC1C(C(=O)OCc2cccc(Oc3ccccc3)c2)C1(C)C` (stereo unspecified), the mutagenic call (Test System: AMES SALMONELLA TYPHIMURIUM, Strain/Indicator: TA98) is reported as “inactive; negative”, the mutagenic call (Test System: AMES SALMONELLA TYPHIMURIUM, Strain/Indicator: TA98, Metabolic Activation: NONE) is reported as “inactive; negative” and the mutagenic call [3] is reported as “inactive; negative”. For the same compound, the mutagenic call (Test System: AMES SALMONELLA TYPHIMURIUM, Strain/Indicator: TA98, Metabolic Activation: RAT, LIVER, S-9, AROCLOR 1254, Method: STANDARD PLATE) was “inactive; negative”, the mutagenic call (Test System: AMES SALMONELLA TYPHIMURIUM, Strain/Indicator: TA100) was “active; positive” and the mutagenic call (Test System: AMES SALMONELLA TYPHIMURIUM, Strain/Indicator: TA100, Metabolic Activation: NONE) was “active; positive”. The mutagenic call [4] was “inactive; negative”, the mutagenic call (Test System: AMES SALMONELLA TYPHIMURIUM, Strain/Indicator: TA100, Metabolic Activation: RAT, LIVER, S-9, AROCLOR 1254, Method: STANDARD PLATE) was “inactive; negative” and the mutagenic call (Test System: AMES SALMONELLA TYPHIMURIUM, Strain/Indicator: TA1535, Metabolic Activation: NONE, Method: STANDARD PLATE) was “inactive; negative”. The mutagenic call (Test System: AMES SALMONELLA TYPHIMURIUM, Strain/Indicator: TA1535, Metabolic Activation: RAT, LIVER, S-9, AROCLOR 1254, Method: STANDARD PLATE) was “inactive; negative”, the mutagenic call (Test System: AMES SALMONELLA TYPHIMURIUM, Strain/Indicator: TA1537, Metabolic Activation: NONE, Method: STANDARD PLATE) was “inactive; negative” and the mutagenic call (Test System: AMES SALMONELLA TYPHIMURIUM, Strain/Indicator: TA1537, Metabolic Activation: RAT, LIVER, S-9, AROCLOR 1254, Method: STANDARD PLATE) was “inactive; negative”. The mutagenic call (Test System: E. COLI, Strain/Indicator: WP2, Metabolic Activation: NONE, Method: STANDARD PLATE) was “inactive; negative” and the mutagenic call (Test System: E. COLI, Strain/Indicator: WP2, Metabolic Activation: RAT, LIVER, S-9, AROCLOR 1254, Method: STANDARD PLATE) was “inactive; negative”.

In the case of `Nc1ccc(/C=C/c2ccc(N)c(S(=O)(=O)O)c2)c(S(=O)(=O)O)c1`, the mutagenic call (Test System: AMES SALMONELLA TYPHIMURIUM, Strain/Indicator: TA98, Metabolic Activation: HAMSTER, LIVER, S-9, AROCLOR 1254 (10%), Method: PREINCUBATION) is reported as “inactive; negative”, the mutagenic call [1] is reported as “inactive; negative” and the mutagenic call (Test System: AMES SALMONELLA TYPHIMURIUM, Strain/Indicator: TA98, Metabolic Activation: RAT, LIVER, S-9, AROCLOR 1254 (10%), Method: PREINCUBATION) is reported as “inactive; negative”. For the same compound, the mutagenic call (Test System: AMES SALMONELLA TYPHIMURIUM, Strain/Indicator: TA100, Metabolic Activation: HAMSTER, LIVER, S-9, AROCLOR 1254 (10%), Method: PREINCUBATION) was “inactive; negative”, the mutagenic call [2] was “inactive; negative” and the mutagenic call (Test System: AMES SALMONELLA TYPHIMURIUM, Strain/Indicator: TA100, Metabolic Activation: RAT, LIVER, S-9, AROCLOR 1254 (10%), Method: PREINCUBATION) was “inactive; negative”. For the same compound, the mutagenic call (Test System: AMES SALMONELLA TYPHIMURIUM, Strain/Indicator: TA1535, Metabolic Activation: HAMSTER, LIVER, S-9, AROCLOR 1254 (10%), Method: PREINCUBATION) was “inactive; negative”, the mutagenic call (Test System: AMES SALMONELLA TYPHIMURIUM, Strain/Indicator: TA1535, Metabolic Activation: NONE, Method: PREINCUBATION) was “inactive; negative” and the mutagenic call (Test System: AMES SALMONELLA TYPHIMURIUM, Strain/Indicator: TA1535, Metabolic Activation: RAT, LIVER, S-9, AROCLOR 1254 (10%), Method: PREINCUBATION) was “inactive; negative”. The mutagenic call (Test System: AMES SALMONELLA TYPHIMURIUM, Strain/Indicator: TA1537, Metabolic Activation: HAMSTER, LIVER, S-9, AROCLOR 1254 (10%), Method: PREINCUBATION) was “inactive; negative”, the mutagenic call (Test System: AMES SALMONELLA TYPHIMURIUM, Strain/Indicator: TA1537, Metabolic Activation: NONE, Method: PREINCUBATION) was “inactive; negative” and the mutagenic call (Test System: AMES SALMONELLA TYPHIMURIUM, Strain/Indicator: TA1537, Metabolic Activation: RAT, LIVER, S-9, AROCLOR 1254 (10%), Method: PREINCUBATION) was “inactive; negative”.
